Data from article PMC4838890, “Dynamic and flexible H3K9me3 bridging via HP1β dimerization establishes a plastic state of condensed chromatin” (Nature Communications, 2016).
“Also recorded” adds a separate entry of the source.

What was measured:
[1] = system: H3KC9me3 oligonucleosomes; assay: Chromatin coprecipitation, H3KC9me3 oligonucleosomes; assay type: binding, Xenopus laevis
Method: (§1) 6.7 nM oligonucleosomes were incubated with 1 μM recombinant protein in 100 μl binding buffer (10 mM triethanolamine (pH 7.5), 150 mM NaCl, 5 mM MgCl2, 0.1 mM EDTA, 0.1% (v/v) Triton-X100) for 1 h on ice. Precipitated chromatin complexes were recovered by centrifugation at 16,100g for 30 min at 4°C. Pellets were washed once with 0.5 ml binding buffer and centrifuged for 15 min at 4 °C. Precipitated material was resuspended in 10 μl 1 × SDS loading buffer and boiled for 5 min before running on SDS–PAGE.
(§2) Supplementary Table 1: Summary of conditions used in the different experiments of this study.
(§3) experiment result modification template Temp. [NaCl] [MgCl2]
(§4) chromatin Fig. 1e,f; Fig. S1f-h; H3K9me3 oligo- 4 150 5

[2] = system: H3K9me0 and H3K9me3 chromatin; details: cited from earlier work
Source text: In our model, modulation of the general chromatin-binding mode is brought about by varying sequences in the HR and NT domains as well as possibly their post-translational modification in other HP1 proteins (different variants, different species). We think that within these regions the overall charge but not a particular sequence is mainly dictating the chromatin-binding properties.

DNA fragment of 150 bp = assay: Electrophoretic mobility shift assay (EMSA); assay type: binding; details: 150 bp DNA, 0, 3, 9 μM protein, 100 mM NaCl, 5 mM MgCl2, RT
Method: 50 ng 150 bp DNA amplified from the backbone of pUC18 was incubated with 0, 3, 9 μM recombinant protein in 10 μl EMSA buffer (10 mM Tris-HCl (pH 8.0), 100 mM NaCl, 5 mM MgCl2) for 20 min at room temperature (RT). 2 μl 50% (v/v) glycerol was added and samples were loaded onto 6% native PAGE gels. After electrophoresis, DNA was visualized by staining with 1 × SYBR Gold/0.25 × TBE for 20 min at RT. Images were captured using a ChemiDoc MP Imaging System (Bio-Rad, München, Germany). […]
crosslinking Fig. S6e,f nucleosomes […]
crosslinking Fig. S7a,b nucleosomes
EMSA Fig. 1g; Fig. 5c; n//a RT 100 5
1Preincubation of oligonucleosomes and h HP1β was performed at 4 °C . Measurements wer e carried out at the in dicated te mperature.
2in increments o f 0 .5 mM
3MgCl2 was added at the end of incubation to coprecipitate oligonucleosomes a nd bound hHP1β.

H3K9me3 oligonucleosomes = assay: Chromatin coprecipitation, H3K9me3 oligonucleosomes; assay type: binding, Xenopus laevis; details: chromatin coprecipitation, 5 mM MgCl2
Method: as §1, §2, §3, §4

[3] = system: mouse embryonic stem cells (mESC); assay: ChIP-seq genome-wide correlation with H3K9me3; assay type: cell-based
Method: For crosslink MNase ChIP of HP1β, 10^7 TT2 WT mouse ES cells were collected. Cells were crosslinked with 1% (v/v) formaldehyde in 10 ml of PBS for 10 min at RT, then quenched with 0.125 M glycine for 5 min. Cells were washed 1 × with PBS, and resuspended in 1 ml of EZ Nuclei Isolation Buffer (Sigma-Aldrich, Steinheim, Germany). The cytoplasmic supernatant was discarded and the pellet was flash frozen with liquid N2. […]
A third of ChIP and input DNA (10–20 ng total) underwent end repair with T4 and Klenow, A-tailing and adaptor ligation. […] Resulting PCR was then purified on 2% EX Gel (Life Technologies, Carlsbad, USA) at the 200–700 bp range, and quantified on Qubit and Agilent Tapestation. […]
Following published data sets were downloaded from NCBI/GEO for this study: SPR899601/ H3K9me3 SETDB1^f/− and SPR899602/H3K9me3 SETDB1^−/− both done with anti-H3K9me3 antibody (ab8898)[36]. Reads were processed and aligned to the mouse reference genome (mm9) using QuasR in R. Genomic alignment was performed twice using BOWTIE with the following parameters: --strata, --best and -m 1 or -m 99 to account for reads that map uniquely or up to 99 times in the mouse genome, respectively. For genome-wide comparisons, only uniquely mapping reads were used. Reads mapping up to 99 times were used for ERV analysis and genome browser visualization. […]

Swi6: S. pombe HP1 protein
recovery with H3KC9me3 oligonucleosomes ([1]; 6.7 nM oligonucleosomes, 1 μM protein, 150 mM NaCl, 5 mM MgCl2): specificity of Swi6 association with H3K9me0 and H3K9me3 oligonucleosomes increased significantly when the chromatin was more saturated; also recorded: recovered to a higher degree in H3K9me3 chromatin coprecipitation compared with hHP1β | molecules bound per nucleosome ([1]; saturating protein concentrations): approximately four | binding to unmodified chromatin ([2]; ref [29]): more pronounced binding to unmodified chromatin

hHP1α WT: recombinant human HP1α (GenBank BC006821) [reference compound]
DNA binding (DNA fragment of 150 bp): high level of general DNA binding | discrimination between H3K9me0 and H3K9me3 chromatin ([2]; ref [12]): limited discrimination between H3K9me0 and H3K9me3 chromatin | specificity for H3K9me3 (H3K9me3 oligonucleosomes): much less specificity for H3K9me3 compared with hHP1β

mHP1β: endogenous mouse HP1β; sequence identical to human HP1β
H3K9me3 loss on SETDB1 deletion at mHP1β-enriched sites ([3]; conditional SETDB1 deletion, H3K9me3 data ref [36]): the strongest loss of H3K9me3 occurred at sites enriched for mHP1β in WT cells | Pearson's R, genome-wide correlation with H3K9me3 ([3]; endogenous mHP1β, antibody-based ChIP-seq, 1 kb windows): 0.77
